Experiment: Particle size (Z-average) of the formulation mixed with water 1:50
Assay type: physicochemical
Experimental: The formulation according to present invention is prepared when the non-ionic surfactant mixture is thoroughly mixed with the solution of the active ingredient in the water-miscible organic solvent/co-solvent.
The present invention will now be illustrated by the following examples. It is understood, however, that such examples are provided for illustration only, and the invention is not intended to be limited by the examples. The formulation based on the system employed in the examples can be formed by any suitable method known in the art. In the examples the formulation was mixed with water at a ratio of 1:50 formulation: water to generate the system and measure the particle size formed in water. The particle size was measured by the method described in Pharmacopea Forum—2001 vol 27 (4) page 2724.

Compound	Z-average (0.5% tacrolimus in ethanol with DEGEE / PEG Oleate / polyethoxylated castor oil as per Table 3, diluted 1:50 in water)	increase of particle Z-average (10% tioconazole formulation omitting DEGEE, compared with complete formulation containing DEGEE, PEG Oleate, polyethoxylated castor oil)	particle size of emulsion (10% tioconazole formulation omitting polyethoxylated castor oil, diluted 1:50 in water)
C=CC[C@@H]1/C=C(\C)C[C@H](C)C[C@H](OC)[C@H]2O[C@@](O)(C(=O)C(=O)N3CCCC[C@H]3C(=O)O[C@H](/C(C)=C/[C@@H]3CC[C@@H](O)[C@H](OC)C3)[C@H](C)[C@@H](O)CC1=O)[C@H](C)C[C@@H]2OC [tacrolimus]	32 nm		
Clc1ccc(C(Cn2ccnc2)OCc2ccsc2Cl)c(Cl)c1 (stereo not drawn) [Tioconazole]		10%	450 nm
